Assay results taken from ChEMBL document CHEMBL3044903, “Synthesis and Herbicidal Activity of Novel 3-Alkoxycarbonyl-3-aryl-2,3-dihydro-2-oxo-1H-pyrrole Derivatives” (J Pestic Sci, 2004).

What was measured:
[1] = tested on: Oryza sativa; experiment: Phytotoxicity against two-leaf stage Oryza sativa cv. Nipponbare (rice) planted 2 cm depth at 5.0 g a.i/a measured after 3 weeks; assay type: organism-based; conditions: in vivo, 504 h
[2] = tested on: Echinochloa oryzicola; experiment: Herbicidal activity against Echinochloa oryzicola at 5.0 g a.i/a treated at 2.5 leaf stage measured after 3 weeks; assay type: functional
[3] = tested on: Schoenoplectiella juncoides; experiment: Pre-emergence herbicide activity against Schoenoplectiella juncoides under greenhouse condition at 1 g a.i/a measured after 3 weeks; assay type: functional
[4] = Drug degradation in MeOH-water/KOH at 70 degC assessed as formation of 1-[1-(3,5-dichlorophenyl)-1-methylethyl]-4-methyl-3- phenyl-3-pyrrolin-2-one; assay type: physicochemical; conditions: buffer
[5] = tested on: Echinochloa oryzicola; experiment: Post-emergence herbicide activity against Echinochloa oryzicola under greenhouse condition at 10 g a.i/a treated at one-leaf stage measured after 3 weeks; assay type: functional
[6] = tested on: Echinochloa oryzicola; experiment: Herbicidal activity against Echinochloa oryzicola at 1 g a.i/a treated at 1.5 leaf stage measured after 3 weeks; assay type: functional
[7] = tested on: Echinochloa oryzicola; experiment: Pre-emergence herbicide activity against Echinochloa oryzicola under greenhouse condition at 10 g a.i/a measured after 3 weeks; assay type: functional
[8] = tested on: Echinochloa oryzicola; experiment: Herbicidal activity against Echinochloa oryzicola at 1 g a.i/a treated at 2.5 leaf stage measured after 3 weeks; assay type: functional
[9] = tested on: Echinochloa oryzicola; experiment: Post-emergence herbicide activity against Echinochloa oryzicola under greenhouse condition at 1 g a.i/a treated at one-leaf stage measured after 3 weeks; assay type: functional
[10] = tested on: Echinochloa oryzicola; experiment: Herbicidal activity against Echinochloa oryzicola at 2.5 g a.i/a treated at 2.5 leaf stage measured after 3 weeks; assay type: functional
[11] = tested on: Schoenoplectiella juncoides; experiment: Pre-emergence herbicide activity against Schoenoplectiella juncoides under greenhouse condition at 10 g a.i/a measured after 3 weeks; assay type: functional
[12] = tested on: Oryza sativa; experiment: Phytotoxicity against two-leaf stage Oryza sativa cv. Nipponbare (rice) planted 2 cm depth assessed as crop injury at 6 g a.i/a followed by leaching of irrigation water for 3 days measured after 3 weeks post-treatment; assay type: organism-based; conditions: in vivo, other, 504 h
[13] = tested on: Echinochloa oryzicola; experiment: Pre-emergence herbicide activity against Echinochloa oryzicola under greenhouse condition at 1 g a.i/a measured after 3 weeks; assay type: functional
[14] = tested on: Echinochloa oryzicola; experiment: Herbicidal activity against Echinochloa oryzicola at 5.0 g a.i/a treated at 1.5 leaf stage measured after 3 weeks; assay type: functional
[15] = tested on: Schoenoplectiella juncoides; experiment: Post-emergence herbicide activity against Schoenoplectiella juncoides under greenhouse condition at 10 g a.i/a treated at one-leaf stage measured after 3 weeks; assay type: functional
[16] = tested on: Oryza sativa; experiment: Phytotoxicity against two-leaf stage Oryza sativa cv. Nipponbare (rice) planted 2 cm depth at 1 g a.i/a measured after 3 weeks; assay type: organism-based; conditions: in vivo, other, 504 h
[17] = tested on: Oryza sativa; experiment: Phytotoxicity against two-leaf stage Oryza sativa cv. Nipponbare (rice) planted zero cm depth at 1 g a.i/a measured after 3 weeks; assay type: organism-based; conditions: in vivo, other, 504 h
[18] = tested on: Oryza sativa; experiment: Phytotoxicity against two-leaf stage Oryza sativa cv. Nipponbare (rice) planted 2 cm depth at 2.5 g a.i/a measured after 3 weeks; assay type: organism-based; conditions: in vivo, 504 h
[19] = tested on: Schoenoplectiella juncoides; experiment: Post-emergence herbicide activity against Schoenoplectiella juncoides under greenhouse condition at 1 g a.i/a treated at one-leaf stage measured after 3 weeks; assay type: functional
[20] = tested on: Oryza sativa; experiment: Phytotoxicity against two-leaf stage Oryza sativa cv. Nipponbare (rice) planted 2 cm depth assessed as crop injury at 3 g a.i/a followed by leaching of irrigation water for 3 days measured after 3 weeks post-treatment; assay type: organism-based; conditions: in vivo, other, 504 h
[21] = tested on: Oryza sativa; experiment: Phytotoxicity against two-leaf stage Oryza sativa cv. Nipponbare (rice) planted zero cm depth at 2.5 g a.i/a measured after 3 weeks; assay type: organism-based; conditions: in vivo, other, 504 h
[22] = tested on: Echinochloa oryzicola; experiment: Herbicidal activity against Echinochloa oryzicola at 2.5 g a.i/a treated at 1.5 leaf stage measured after 3 weeks; assay type: functional
[23] = tested on: Oryza sativa; experiment: Phytotoxicity against two-leaf stage Oryza sativa cv. Nipponbare (rice) planted zero cm depth at 5.0 g a.i/a measured after 3 weeks; assay type: organism-based; conditions: in vivo, 504 h

With COC(=O)C1(c2ccccc2)C(=O)N(C(C)(C)c2cc(Cl)cc(Cl)c2)C=C1C (stereo not drawn) the Activity [1] was 0%, the Activity [2] was 98% and the Activity [3] was 100%. The Stability [4] was “Unstable”, the Activity [5] was 100% and the Activity [6] was 98%. For the same molecule, the Activity [7] was 100%, the Activity [8] was 60% and the Activity [9] was 87.6%. For the same molecule, the Activity [10] was 95%, the Activity [11] was 100% and the Activity [12] was 7%. The Activity [13] was 100%, the Activity [14] was 100% and the Activity [15] was 87.6%. The Activity [16] was 0%, the Activity [17] was 0% and the Activity [18] was 0%. It also gave an Activity [19] of 0.1%, an Activity [20] of 0% and an Activity [21] of 10%. For the same molecule, the Activity [22] was 98% and the Activity [23] was 80%.
